Source: ChEMBL document CHEMBL5352478, “Novel pyridine-containing histone deacetylase inhibitors strongly arrest proliferation, induce apoptosis and modulate miRNAs in cancer cells” (Eur J Med Chem, 2023)

Key:
Histone deacetylase 1 = Histone deacetylase 1 (Homo sapiens, UniProt Q13547)
Histone deacetylase 4 = Histone deacetylase 4 (Homo sapiens, UniProt P56524)
[1] = biological target: T1, Protein deacetylase HDAC6 (Homo sapiens, UniProt Q9UBN7)
T1 sequence (Q9UBN7 whole entry): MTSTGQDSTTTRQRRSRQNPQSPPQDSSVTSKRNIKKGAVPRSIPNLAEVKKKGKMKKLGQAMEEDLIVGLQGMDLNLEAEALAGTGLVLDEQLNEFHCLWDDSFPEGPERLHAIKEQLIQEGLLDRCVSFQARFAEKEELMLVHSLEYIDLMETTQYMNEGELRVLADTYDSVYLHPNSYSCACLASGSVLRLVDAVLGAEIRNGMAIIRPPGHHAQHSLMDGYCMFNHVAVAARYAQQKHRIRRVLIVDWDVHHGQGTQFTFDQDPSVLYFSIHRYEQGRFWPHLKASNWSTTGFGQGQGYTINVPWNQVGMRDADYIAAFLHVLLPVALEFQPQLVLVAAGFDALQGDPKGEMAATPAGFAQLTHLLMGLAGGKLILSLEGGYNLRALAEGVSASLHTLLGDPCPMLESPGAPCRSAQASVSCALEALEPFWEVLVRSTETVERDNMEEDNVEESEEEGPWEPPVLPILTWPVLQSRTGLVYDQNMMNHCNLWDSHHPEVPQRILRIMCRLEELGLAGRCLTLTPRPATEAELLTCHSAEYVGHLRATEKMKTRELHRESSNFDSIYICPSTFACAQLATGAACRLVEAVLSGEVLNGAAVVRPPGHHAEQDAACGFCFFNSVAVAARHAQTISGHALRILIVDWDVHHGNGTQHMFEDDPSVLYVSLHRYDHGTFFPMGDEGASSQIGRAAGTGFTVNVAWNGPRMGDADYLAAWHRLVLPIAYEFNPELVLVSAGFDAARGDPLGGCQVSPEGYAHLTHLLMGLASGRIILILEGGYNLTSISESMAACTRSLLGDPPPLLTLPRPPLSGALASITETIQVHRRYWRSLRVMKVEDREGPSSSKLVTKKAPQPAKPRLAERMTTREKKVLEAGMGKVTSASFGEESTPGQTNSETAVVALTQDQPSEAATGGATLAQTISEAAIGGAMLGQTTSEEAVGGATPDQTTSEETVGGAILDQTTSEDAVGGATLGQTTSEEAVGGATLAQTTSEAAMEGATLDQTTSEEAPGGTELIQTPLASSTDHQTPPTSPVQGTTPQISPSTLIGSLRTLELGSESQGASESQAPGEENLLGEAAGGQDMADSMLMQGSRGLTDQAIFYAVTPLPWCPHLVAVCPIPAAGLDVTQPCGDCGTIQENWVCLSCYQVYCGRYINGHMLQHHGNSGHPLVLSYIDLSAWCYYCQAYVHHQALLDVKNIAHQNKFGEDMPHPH

Histone deacetylase 3 = Histone deacetylase 3 (Homo sapiens, UniProt O15379)
Histone deacetylase 3, sequence (O15379 whole entry): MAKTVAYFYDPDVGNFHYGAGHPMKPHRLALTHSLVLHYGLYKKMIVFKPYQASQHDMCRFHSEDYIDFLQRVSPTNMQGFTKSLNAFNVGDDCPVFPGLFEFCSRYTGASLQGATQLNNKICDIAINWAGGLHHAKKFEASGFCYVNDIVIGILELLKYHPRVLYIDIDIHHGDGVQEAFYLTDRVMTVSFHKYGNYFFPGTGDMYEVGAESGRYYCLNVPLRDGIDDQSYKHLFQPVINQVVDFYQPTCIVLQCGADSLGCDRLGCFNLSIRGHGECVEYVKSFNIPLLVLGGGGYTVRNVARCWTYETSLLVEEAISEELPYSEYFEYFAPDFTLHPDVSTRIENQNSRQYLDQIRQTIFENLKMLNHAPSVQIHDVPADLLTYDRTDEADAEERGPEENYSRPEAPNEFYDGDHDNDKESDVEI

Histone deacetylase 8 [2] = biological target: T2, Histone deacetylase 8 (Homo sapiens, UniProt Q9BY41)
T2 sequence (Q9BY41 whole entry): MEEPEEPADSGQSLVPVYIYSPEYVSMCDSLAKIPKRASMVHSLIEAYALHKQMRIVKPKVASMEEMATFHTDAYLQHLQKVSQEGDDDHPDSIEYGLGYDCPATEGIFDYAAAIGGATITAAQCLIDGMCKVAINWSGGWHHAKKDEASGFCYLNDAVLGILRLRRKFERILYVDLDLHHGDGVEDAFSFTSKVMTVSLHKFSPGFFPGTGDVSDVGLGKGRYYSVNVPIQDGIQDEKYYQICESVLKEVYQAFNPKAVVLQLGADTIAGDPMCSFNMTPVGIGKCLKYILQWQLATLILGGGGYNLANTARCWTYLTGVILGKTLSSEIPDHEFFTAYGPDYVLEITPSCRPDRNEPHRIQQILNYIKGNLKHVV

A549 = assay: cells; type: functional, cell-based; details: Homo sapiens, A549, 72 h
K562 = assay: cells; type: functional, cell-based; details: Homo sapiens, K562, 72 h
HCT-116 = assay: cells; type: functional, cell-based; details: Homo sapiens, HCT-116, 72 h
U-937 [3] = assay: Induction of cell cycle arrest in human U-937 cells assessed as accumulation of cells in G1 phase at 1 to 5 uM for 48 hrs by PI staining based flow cytometric analysis; type: functional; details: dose 1-5 µM
U-937 [4] = assay: Induction of cell cycle arrest in human U-937 cells assessed as accumulation of cells in pre-G1 phase at 5 uM for 24 hrs by PI staining based flow cytometric analysis; type: functional
Histone deacetylase 8 [5] = biological target: T2, Histone deacetylase 8; remark: listed apart in the source
Kasumi 1 = assay: Antiproliferative activity against human Kasumi 1 cells incubated for 48 hrs; type: functional, cell-based; details: Kasumi 1, 48 h
U-937 [6] = assay: Antiproliferative activity against human U-937 cells incubated for 48 hrs; type: functional, cell-based; details: U-937, 48 h
OCI-AML-3 = assay: Antiproliferative activity against human OCI-AML-3 cells incubated for 48 hrs; type: functional, cell-based; details: OCI-AML-3, 48 h
MV4-11 = assay: Antiproliferative activity against human MV4-11 cells incubated for 48 hrs; type: functional, cell-based; details: MV4-11, 48 h
[7] = Antiproliferative activity against human IMS-M2 cells incubated for 48 hrs; type: functional, cell-based; details: IMS-M2, 48 h
OCI-AML2 = assay: Antiproliferative activity against human OCI-AML2 cells incubated for 48 hrs; type: functional, cell-based; details: OCI-AML2, 48 h
HL-60 = assay: Antiproliferative activity against human HL-60 cells incubated for 48 hrs; type: functional, cell-based; details: HL-60, 48 h
NB-4 = assay: Antiproliferative activity against human NB4 cells incubated for 48 hrs; type: functional, cell-based; details: NB-4, 48 h
KARPAS-299 = assay: Antiproliferative activity against human KARPAS-299 cells incubated for 48 hrs; type: functional, cell-based; details: KARPAS-299, 48 h

Histone deacetylase 1, sequence (Q13547 whole entry): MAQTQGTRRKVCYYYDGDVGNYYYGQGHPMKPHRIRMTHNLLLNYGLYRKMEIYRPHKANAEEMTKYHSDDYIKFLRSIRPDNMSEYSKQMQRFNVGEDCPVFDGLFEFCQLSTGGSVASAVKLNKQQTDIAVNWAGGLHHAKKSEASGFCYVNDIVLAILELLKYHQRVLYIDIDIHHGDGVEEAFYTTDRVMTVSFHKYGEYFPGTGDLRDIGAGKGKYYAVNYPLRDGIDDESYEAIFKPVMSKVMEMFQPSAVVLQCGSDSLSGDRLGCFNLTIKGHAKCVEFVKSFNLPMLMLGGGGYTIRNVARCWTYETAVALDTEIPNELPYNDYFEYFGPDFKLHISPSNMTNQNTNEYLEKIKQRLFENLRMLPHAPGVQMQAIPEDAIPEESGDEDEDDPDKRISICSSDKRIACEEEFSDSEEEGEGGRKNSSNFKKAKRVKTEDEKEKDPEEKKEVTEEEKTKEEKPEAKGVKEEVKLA
Histone deacetylase 4, sequence (P56524 whole entry): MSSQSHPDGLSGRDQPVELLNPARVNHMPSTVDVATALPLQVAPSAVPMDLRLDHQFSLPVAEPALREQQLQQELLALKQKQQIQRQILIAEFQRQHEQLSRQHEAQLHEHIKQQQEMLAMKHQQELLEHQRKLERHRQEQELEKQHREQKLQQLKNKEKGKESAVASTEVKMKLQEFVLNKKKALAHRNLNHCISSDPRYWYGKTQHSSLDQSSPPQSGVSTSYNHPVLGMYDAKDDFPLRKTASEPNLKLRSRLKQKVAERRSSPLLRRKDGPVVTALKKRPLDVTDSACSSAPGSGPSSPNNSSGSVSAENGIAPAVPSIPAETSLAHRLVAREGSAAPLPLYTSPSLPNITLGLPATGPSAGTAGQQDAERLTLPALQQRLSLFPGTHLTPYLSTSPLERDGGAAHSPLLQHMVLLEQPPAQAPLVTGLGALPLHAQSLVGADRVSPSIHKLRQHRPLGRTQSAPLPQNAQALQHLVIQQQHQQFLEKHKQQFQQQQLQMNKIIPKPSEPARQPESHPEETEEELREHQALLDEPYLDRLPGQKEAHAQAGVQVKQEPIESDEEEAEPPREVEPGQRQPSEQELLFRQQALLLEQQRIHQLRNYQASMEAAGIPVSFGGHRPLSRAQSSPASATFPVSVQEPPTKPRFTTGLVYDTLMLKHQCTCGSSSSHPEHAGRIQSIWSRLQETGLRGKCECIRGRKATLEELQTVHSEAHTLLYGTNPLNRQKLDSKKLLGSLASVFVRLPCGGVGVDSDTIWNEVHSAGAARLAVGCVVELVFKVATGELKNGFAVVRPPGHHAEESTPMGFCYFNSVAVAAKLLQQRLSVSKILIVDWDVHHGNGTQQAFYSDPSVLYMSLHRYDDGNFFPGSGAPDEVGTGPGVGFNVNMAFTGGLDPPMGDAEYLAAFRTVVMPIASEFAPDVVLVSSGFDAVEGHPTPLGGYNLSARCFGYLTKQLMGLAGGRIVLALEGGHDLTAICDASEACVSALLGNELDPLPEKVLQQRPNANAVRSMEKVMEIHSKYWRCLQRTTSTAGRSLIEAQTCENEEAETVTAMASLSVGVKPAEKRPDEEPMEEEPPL

Row | Structure (SMILES) | IC50 (Histone deacetylase 1) [nM] | IC50 (Histone deacetylase 4; read-out: IC50) [nM] | IC50 ([1]; read-out: IC50) [nM] | IC50 (Histone deacetylase 3) [nM] | IC50 (Histone deacetylase 8 [2]) [nM] | IC50 (A549) [nM] | IC50 (K562) [nM] | IC50 (HCT-116) [nM] | IC50 (Histone deacetylase 4) | IC50 [1] | further results
1 | O=C(Cc1ccccc1)Nc1ccc(C(=O)NO)nc1 | 3000 | 82400 | 174 | 2060 | 1090 |  |  |  |  |  | 
2 | O=C(/C=C/c1ccc(NC(=O)Cc2ccc3ccccc3c2)cn1)NO | 376 | 17600 | 112 | 168 | 1010 | 600 | 130 | 210 |  |  | 
3 | CC(C)C(C(=O)Nc1ccc(C(=O)Nc2ccccc2N)nc1)c1ccccc1 (stereo unspecified) | 330 |  |  | 488 | 75200 |  |  |  | Not Active | Not Active | 
4 | CCC(C(=O)Nc1ccc(/C=C/C(=O)Nc2ccccc2N)nc1)c1ccccc1 (stereo unspecified) | 143 |  |  | 268 | 35600 |  |  |  | Not Active | Not Active | 
5 | CCC(C(=O)Nc1ccc(C(=O)NO)nc1)c1ccccc1 (stereo unspecified) | 1490 | 77900 | 51 | 777 | 964 | 5470 | 1780 | 1680 |  |  | 
6 | CC(C)C(C(=O)Nc1ccc(/C=C/C(=O)Nc2ccccc2N)nc1)c1ccccc1 (stereo unspecified) | 151 |  |  | 319 | 43100 | 5690 | 2890 | 4380 | Not Active | Not Active | 
7 | O=C(CCCCCCC(=O)Nc1ccccc1)NO [VORINOSTAT] |  |  |  |  |  |  |  |  |  |  | Activity (U-937 [3]): 70%; Activity (U-937 [4]): 10%
8 | Nc1ccccc1NC(=O)c1ccc(NC(=O)Cc2cccc3ccccc23)cn1 | 129 |  |  | 289 | 98400 |  |  |  | Not Active | Not Active | 
9 | Nc1ccccc1NC(=O)/C=C/c1ccc(NC(=O)Cc2cccc3ccccc23)cn1 | 63 |  |  | 264 |  | 9430 | 3140 | 8280 | Not Active | Not Active | IC50 (Histone deacetylase 8 [5]): Not Active
10 | O=C(NO)c1ccc(NC(=O)C(Cc2ccccc2)c2ccccc2)cn1 (stereo unspecified) | 783 | 39200 | 16 | 153 | 1090 | 2660 | 490 | 1050 |  |  | 
11 | Nc1ccccc1NC(=O)c1ccc(CNc2nccc(-c3cccnc3)n2)cc1 [MOCETINOSTAT] |  |  |  |  |  |  |  |  |  |  | IC50 (Kasumi 1): 151 nM; IC50 (U-937 [6]): 1370 nM; IC50 (OCI-AML-3): 1790 nM; IC50 (MV4-11): 190 nM; IC50 [7]: 657 nM; IC50 (OCI-AML2): 1560 nM; IC50 (HL-60): 418 nM; IC50 (NB-4): 406 nM; IC50 (KARPAS-299): 4150 nM
